The values below come from patent US12421276B2 (priority 2016, dated 2025).

Where a SMILES comes first, the peptide text is derived from it. [ ]: non-standard residue; d: D form. The star is where a group is joined. ξ: configuration not given here. ξpY = NC(Cc1ccc(OP(=O)(O)O)cc1)C(=O)O; Ile(3ξ) = CCC(C)[C@H](N)C(=O)O; Hexanoyl = CCCCCC(=O)*; Ahx = NCCCCCC(=O)O

Data set [1] can be described thus: Plasma stability study, human plasma. The following applies: human, plasma. The class given is in vitro ADME. The protocol: (§1) Human and rat plasma (K2 EDTA) were obtained from Bioreclamation.
(§2) Compounds were dissolved as 0.3 mM DMSO stocks. Compounds were transferred to the plasma at 1 μM on a 96-well deep well plate. After mixing, samples were transferred to several 96-well plates (25 μL/well), and incubated at 37° C. The extent of metabolism was calculated as the disappearance of the test compound, compared to the 0-min control reaction incubations. Propantheline was included as a positive control to verify assay performance.
(§3) At each of the time points, 150 μL of quench solution (50% acetonitrile, 50% methanol with 0.05% formic acid) with internal standard (bucetin for positive ESI mode and warfarin for negative ESI mode) was transferred to each well. Plates were sealed and centrifuged at 4° C. for 15 minutes at 4000 rpm. The supernatant was transferred to fresh plates for LC/MS/MS analysis.
(§4) Elution conditions are detailed in the table below.
(§5) Initial rates of the clearance of test compounds were calculated using linear regression of semi-log plot of % remaining of compounds versus time. The elimination rate constant (equals to −slope) of the linear regression was then used to determine t½ values.

A short description of data set [2]: Plasma stability study, rat plasma. The class given is in vitro ADME. The following applies: rat, plasma. The protocol: as §1, §2, §3, §4, §5
The next data set relates to Caco-2 cells. The experiment in a line: Caco-2 permeability study with or without P-gp inhibitor GF120918. To be noted: for Abs. Quotient: (Papp A-B with inhibitor − without inhibitor)/Papp A-B with inhibitor; for Caco-2 Cells Permeability Recovery Rate: 1 hr, pH 7.4. (Passage across Caco-2 layers is used to estimate intestinal permeability.)
Data set [3] is described as follows: Metabolic stability in simulated intestinal fluid (SIF), pH 6.8, with or without pancreatin. It is filed as in vitro ADME. The protocol:
(§6) Metabolic Stability in SIF and SGF (Simulated Intestinal and Gastric Fluid)
Buffer 3=SIF without enzyme
Buffer 4=SIF with 1% pancreatin
(§7) SIF was prepared freshly with 8.7 mM NaOH, 28.65 mM NaH2PO4, 105.85 mM NaCl, with a final pH of 6.8. SGF was prepared freshly with 34.2 mM NaCl, with a final pH of 1.2. Enzymes such as pepsin or pancreatin were added to some buffers. Human and rat plasma (K2 EDTA) were purchased from BioreclamationIVT.
(§8) Compounds were dissolved as 1.5 mM DMSO stocks. Compounds were transferred to SIF, SGF, or plasma at 5 μM on a 96-well deep well plate. After mixing, samples were transferred to several 96-well plates (25 μL/well), and incubated at 37° C. The extent of metabolism was calculated as the disappearance of the test compound, compared to the 0-min control reaction incubations. Candesartan Cilexetil and omeprazole were included as positive controls for SIF and SGF, respectively, to verify assay performance.
(§9) At each of the time points, 150 μL of quench solution (100% acetonitrile with 0.1% formic acid) with internal standard (bucetin for positive ESI mode and warfarin for negative ESI mode) was transferred to each well. Plates were sealed and centrifuged at 4° C. for 15 minutes at 4000 rpm. The supernatant was transferred to fresh plates for LC/MS/MS analysis.
as §4, §5

A short description of data set [4]: Metabolic stability in simulated gastric fluid (SGF), pH 1.2, with or without pepsin. The class given is in vitro ADME. The protocol: as §6
Buffer 1=SGF without enzyme
Buffer 2=SGF with 0.32% pepsin
as §7, §8, §9, §4, §5

The format of data set [5] is in vivo, rat. To be noted: Rat, PO, 10 mg/kg equiv., n = 4. The protocol:
• 1. Eight (8) male JVC SD rats (purchased from Charles River Lab) were monitored daily for body condition and health status during the 3-5 days acclimation period. The rats were randomly assigned into […] (n=4). • 2. […] The dosed rats were individually placed into a metabolic cage, and have access to food and water at all times. The urine from each rat was collected daily from the metabolic cages, and kept in dry ice. • 4. At predose (0 min), 5 min, 15 min, 30 min, 1 hr, 2 hr, 8 hr, and 24 hr post dosing, approximately 200 ul blood samples were collected from each rat and transferred to EDTA tubes. • 5. The blood samples in EDTA vials were centrifuged at 4° C. and 6,000 rpm for 10 minutes to generate ˜100 μl of plasma per sample. Blood samples were processed as quickly as possible and remain no longer than 2 min at room temperature and no longer than 15 minutes at 4° C. prior to processing. • 6. All samples were transferred for bioanalytic assay using LCMS

[6] abbreviates: +GF120918 (10 μM), 10 μM compound.
The mark [7] stands for this setting: analyte: Parent (BASE STRUCTURE).

For the compound `CCCCCC(=O)NC(Cc1ccc(OC(=O)CN2CCN(C)CC2)cc1)C(=O)NC(C(=O)NCCCCCC(N)=O)C(C)CC` (centres unmarked) [Compound A22], the entries for the “Plasma Stability Half-Life” value in data set [1] and in data set [2] were 87.9 min and 8.7 min, respectively. The “Abs. Quotient” value with Caco-2 cells was determined as 0.78. The “Caco-2 Cells Permeability Recovery Rate” value in the data set on Caco-2 cells (setting [6]) is 104%; in the data set with Caco-2 cells (−GF120918, 10 μM compound), 107%.
On the same counts, the results for `CCCCCC(=O)NC(Cc1ccc(OC(=O)CN2CCOCC2)cc1)C(=O)NC(C(=O)NCCCCCC(N)=O)C(C)CC` (centres unmarked) [Compound A23] are 31.3 min, 8.2 min, 0.78, 96% and 91%.
`CCCCCC(=O)NC(Cc1ccc(OC(=O)CN2CCCC2)cc1)C(=O)NC(C(=O)NCCCCCC(N)=O)C(C)CC` (centres unmarked) [Compound A24]: the “Plasma Stability Half-Life” value amounted to 7.3 min in data set [1] and 64.2 min in data set [2]. The “Abs. Quotient” value in the data set with Caco-2 cells is on record as 0.88. Also, the “Caco-2 Cells Permeability Recovery Rate” value is 72% in the data set on Caco-2 cells (setting [6]) and 72% in the data set with Caco-2 cells (−GF120918, 10 μM compound).
Consider `CCCCCC(=O)NC(Cc1ccc(OC(=O)CN(C)C)cc1)C(=O)NC(C(=O)NCCCCCC(N)=O)C(C)CC` (centres unmarked) [Compound A25], for which the “Plasma Stability Half-Life” value in data set [1] worked out at 10.1 min; in data set [2], 8.2 min. The “SIF Stability (pH 6.8) Half-Life (min)” value in data set [3] (simulated gi fluid, pH 6.8) is reported as 34.7 min. Further, in data set [4] (simulated gi fluid, pH 1.2), the “SGF Stability (pH 1.2) Half-Life (min)” value was 389.4 min. The “Abs. Quotient” value in the data set on Caco-2 cells worked out at 0.77. For the same compound, the “Caco-2 Cells Permeability Recovery Rate” value in the data set with Caco-2 cells (setting [6]) amounted to 83%; with Caco-2 cells (−GF120918, 10 μM compound), 91%.
Take `CCCCCC(=O)NC(Cc1ccc(OC(=O)C(N)C(C)C)cc1)C(=O)NC(C(=O)NCCCCCC(N)=O)C(C)CC` (centres unmarked) [Compound A27] (Hexanoyl-Tyr(Val)-Ile-[Ahx]-NH2; configuration not given here): the “Plasma Stability Half-Life” value in data set [1] was determined as 13.2 min; in data set [2] it was 31.9 min. Also, the “Abs. Quotient” value with Caco-2 cells worked out at 0.70. Moreover, the “Caco-2 Cells Permeability Recovery Rate” value in the data set with Caco-2 cells (setting [6]) was 94%; with Caco-2 cells (−GF120918, 10 μM compound), 90%.
With `CCCCCC(=O)NC(Cc1ccc(OP(=O)(O)O)cc1)C(=O)N[C@H](C(=O)NCCCCCC(N)=O)C(C)CC.N.N` (some centres unmarked) [Compound A29] (Hexanoyl-[ξpY]-[Ile(3ξ)]-[Ahx]-NH2), in data set [3] (+Pancreatin (1%), 5 μM, 37° C.), the “SIF Stability (pH 6.8) Half-Life (min)” value is reported as “Neg”, the “SIF Stability (pH 6.8) 0 min” value is 100%, the “SIF Stability (pH 6.8) 60 min” value is 94% and the “SIF Stability (pH 6.8) 120 min” value was 98%. For the same compound, the “SIF Stability (pH 6.8) 240 min” value in data set [3] (+Pancreatin (1%), 5 μM, 37° C.) is 104%. In addition, in data set [3] (−Pancreatin, 5 μM, 37° C.), the “SIF Stability (pH 6.8) Half-Life (min)” value is recorded as “Neg”, the “SIF Stability (pH 6.8) 0 min” value was 100%, the “SIF Stability (pH 6.8) 60 min” value is recorded as 96% and the “SIF Stability (pH 6.8) 120 min” value was 97%. Further, the “SIF Stability (pH 6.8) 240 min” value in data set [3] (−Pancreatin, 5 μM, 37° C.) is 103%. Also, in data set [5] (setting [7]), the “AUC0-24” value is 35.9 ± 27.6 ng·h/mL, the “AUC0-inf” value turned out to be 48.6 ± 26.5 ng·h/mL, the “Cmax” value was 39.7 ± 74.2 ng/mL and the “Tmax (h)” value is listed as 2.1 ± 4^ h. In data set [5] (setting [7]), the “half-life” value was determined as 942 ± 858 min. The “Tmax” value in data set [5] (analyte: Prodrug) amounted to 0 h. Also, in data set [4] (+Pepsin (0.32%), 5 μM, 37° C.), the “SGF Stability (pH 1.2) Half-Life (min)” value was 225.0 min, the “SGF Stability (pH 1.2) 0 min” value is given as 100%, the “SGF Stability (pH 1.2) 60 min” value is reported as 86% and the “SGF Stability (pH 1.2) 120 min” value is 63%. Further, the “SGF Stability (pH 1.2) 240 min” value in data set [4] (+Pepsin (0.32%), 5 μM, 37° C.) is given as 49%. For the same compound, in data set [4] (−Pepsin, 5 μM, 37° C.), the “SGF Stability (pH 1.2) Half-Life (min)” value is listed as “Neg”, the “SGF Stability (pH 1.2) 0 min” value is 100%, the “SGF Stability (pH 1.2) 60 min” value was 117% and the “SGF Stability (pH 1.2) 120 min” value was 129%. In data set [4] (−Pepsin, 5 μM, 37° C.), the “SGF Stability (pH 1.2) 240 min” value was 123%. For the same compound, in the data set on Caco-2 cells, the “Abs. Quotient” value is 0.83. Moreover, in the data set with Caco-2 cells (setting [6]), the “Caco-2 Cells Permeability Recovery Rate” value is reported as 76%. For the same compound, the “Caco-2 Cells Permeability Recovery Rate” value in the data set with Caco-2 cells (−GF120918, 10 μM compound) came out at 86%.

One may read the Cmax as the peak of the concentration-time curve. What is called half-life is the time needed for the level to fall by half in the phase considered. The term Tmax denotes the time from dosing to the highest level.
